Laboratory results taken from patent US8431706B2, “1,2,3,4-tetrahydroqinoline derivative useful for the treatment of diabetes” (Eli Lilly and Company, priority 2011, dated 2013).

How the values were obtained:
PPARγ = target: T1, PPARγ (Homo sapiens, UniProt P37231); experiment: PPARγ reporter functional assay in CV1 cells; type: cell-based; conditions: examined up to 10 μM; luciferase reporter; 24 hours
T1 sequence (P37231 1-505): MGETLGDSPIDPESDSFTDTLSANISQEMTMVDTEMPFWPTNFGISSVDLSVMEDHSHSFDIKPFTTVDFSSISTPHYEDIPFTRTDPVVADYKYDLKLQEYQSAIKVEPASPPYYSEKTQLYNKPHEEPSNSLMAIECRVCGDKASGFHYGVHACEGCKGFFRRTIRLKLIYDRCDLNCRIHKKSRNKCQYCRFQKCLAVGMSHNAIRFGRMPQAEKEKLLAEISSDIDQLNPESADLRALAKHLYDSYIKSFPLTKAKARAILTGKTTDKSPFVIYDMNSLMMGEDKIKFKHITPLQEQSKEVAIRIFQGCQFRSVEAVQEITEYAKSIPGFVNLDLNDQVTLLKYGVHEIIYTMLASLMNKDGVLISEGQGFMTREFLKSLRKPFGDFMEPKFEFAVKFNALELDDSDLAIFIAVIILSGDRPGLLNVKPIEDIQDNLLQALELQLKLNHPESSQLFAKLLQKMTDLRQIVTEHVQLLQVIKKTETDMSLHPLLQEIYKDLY
T1 sequence (P19793 1-462 partner): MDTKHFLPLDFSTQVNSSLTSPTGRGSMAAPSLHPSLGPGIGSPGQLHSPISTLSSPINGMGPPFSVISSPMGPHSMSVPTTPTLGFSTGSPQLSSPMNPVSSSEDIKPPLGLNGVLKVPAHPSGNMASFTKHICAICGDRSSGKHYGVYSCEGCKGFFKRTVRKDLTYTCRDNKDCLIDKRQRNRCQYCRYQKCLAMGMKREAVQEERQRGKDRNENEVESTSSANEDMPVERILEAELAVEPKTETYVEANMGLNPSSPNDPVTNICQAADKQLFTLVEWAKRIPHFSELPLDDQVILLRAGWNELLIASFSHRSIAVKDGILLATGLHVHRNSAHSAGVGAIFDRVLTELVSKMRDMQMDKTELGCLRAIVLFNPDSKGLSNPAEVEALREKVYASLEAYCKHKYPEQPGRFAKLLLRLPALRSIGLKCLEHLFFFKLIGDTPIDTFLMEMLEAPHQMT
From the text: (§1) Gal4 PPARα, Gal4 PPARδ, and PPARγ reporter functional assays are also used to monitor the selectivity of the exemplified compound. CV1 cells, which are derived from the renal tissue of an African green monkey, are transfected with various receptor and reporter plasmids using Fugene. For the Gal4 PPARα and PPARδ assays, a reporter plasmid containing five tandem copies of the yeast transcription protein Gal4 response element, cloned upstream of a firefly luciferase gene driven by the major late promoter of adenovirus, is transfected together with a Simian Virus 40 (SV40) driven plasmid constitutively expressing a hybrid protein containing the Gal4 DNA binding domain (DBD), and either the PPARα or PPARδ ligand binding. For the PPARγ assay, plasmids encoding PPARγ and RXRα, both driven by a cytomegalovirus (CMV) promoter are transfected together with a plasmid containing luciferase reporter cDNA driven by the TK promoter and a receptor response element (2×PPRE). Cells are transfected in T225 cm^2 cell culture flasks in DMEM media with 5% charcoal-stripped FBS. […] After 24 hours incubation with the compound, cells are lysed and luciferase activity is determined as a measure of receptor activation by luminescence. […] The maximum percent stimulation is determined versus maximum stimulation obtained with 10 μM of an appropriate PPAR agonist reference compound. […]

Gal4 PPARδ = target: T2, Gal4 PPARδ (Homo sapiens, UniProt Q03181); experiment: Gal4 PPARδ reporter functional assay in CV1 cells; type: cell-based; conditions: examined up to 10 μM; luciferase reporter; 24 hours
T2 construct: expressed in transfected cells; host or cells: CV1 (African green monkey kidney)
T2 sequence (Q03181 211-439 limits assumed): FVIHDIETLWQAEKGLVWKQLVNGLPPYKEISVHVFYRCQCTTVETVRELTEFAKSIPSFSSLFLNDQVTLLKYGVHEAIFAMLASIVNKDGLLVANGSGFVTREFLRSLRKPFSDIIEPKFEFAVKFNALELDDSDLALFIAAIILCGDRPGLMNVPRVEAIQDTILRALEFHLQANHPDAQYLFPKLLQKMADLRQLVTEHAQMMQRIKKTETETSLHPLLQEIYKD
From the text: as §1

functional activation of PPARγ (PPARγ): No functional activation | functional activation of PPARδ (Gal4 PPARδ): No functional activation
SMILES: CC#C[C@@H](CC(=O)O)c1ccc(OCc2ccc(CN3CCCc4cccc(OC)c43)s2)cc1 [Example 1, (3S)-3-[4-[[5-[(8-Methoxy-3,4-dihydro-2H-quinolin-1-yl)methyl]-2-thienyl]methoxy]phenyl]hex-4-ynoic acid]
